Test results reported in US10167262B2, “Herbicidal substituted 3-arylpyrazoles” (FMC CORPORATION, priority 2014, dated 2019).
Where two headings read alike, the source gives them in different places.

What was measured:
Format in all cases: in vivo
[1] = system: barnyardgrass (Echinochloa crus-galli); experiment: Test A pre-/postemergence greenhouse herbicide test, visual injury rating 0-100; conditions: Echinochloa crus-galli, 240 h, 1000 g ai/ha, read-out: Plant response rating (0 to 100 scale), Barnyardgrass
Summary of the method: (§1)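 Visual injury versus untreated controls, scored about 10 days after treatment on a 0 to 100 scale (0 = no effect, 100 = complete control). Applications were preemergence directed soil spray plus postemergence spray at one- to two-leaf stage, 2 to 10 cm plants.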

corn (Zea mays) = experiment: as above; conditions: Zea mays, 240 h, 1000 g ai/ha, read-out: Plant response rating (0 to 100 scale), Corn
Summary of the method: as §1

[2] = system: giant foxtail (Setaria faberii); experiment: as above; conditions: Setaria faberi, 240 h, 1000 g ai/ha, read-out: Plant response rating (0 to 100 scale), Foxtail, Giant
Summary of the method: as §1

[3] = system: large (Lg) crabgrass (Digitaria sanguinalis); experiment: as above; conditions: Digitaria sanguinalis, 240 h, 1000 g ai/ha, read-out: Plant response rating (0 to 100 scale), Crabgrass, Large
Summary of the method: as §1

[4] = system: morningglory (Ipomoea spp.); experiment: as above; conditions: Ipomoea, pre-emergence, 240 h; Preemergence, 1000 g ai/ha; read-out: Plant response rating (0 to 100 scale), Morningglory
Summary of the method: as §1

[5] = system: pigweed (Amaranthus retroflexus); experiment: as above; conditions: Amaranthus retroflexus, 240 h, 1000 g ai/ha, read-out: Plant response rating (0 to 100 scale), Pigweed
Summary of the method: as §1

[6] = system: velvetleaf (Abutilon theophrasti); experiment: as above; conditions: Abutilon theophrasti, 240 h, 1000 g ai/ha, read-out: Plant response rating (0 to 100 scale), Velvetleaf
Summary of the method: as §1

[7] = system: wheat (Triticum aestivum); experiment: as above; conditions: Triticum aestivum, 240 h, 1000 g ai/ha, read-out: Plant response rating (0 to 100 scale), Wheat
Summary of the method: as §1

[8] = system: blackgrass (Alopecurus myosuroides); experiment: Test C pre-/postemergence greenhouse test, plant response rating 0-100; conditions: Alopecurus myosuroides; for pest or weed control at 62 g/ha: 62 g ai/ha; for pest or weed control at 125 g/ha: 125 g ai/ha; for pest or weed control at 250 g/ha: 250 g ai/ha; for pest or weed control at 500 g/ha: 500 g ai/ha
Summary of the method: (§2)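 Plants were scored visually against controls 13–15 days after treatment on a 0–100 scale, 100 meaning complete control. Test chemicals, formulated in surfactant-containing non-phytotoxic solvent, went preemergence onto seeds in loam–sand blend or postemergence onto 1- to 4-leaf plants (2–18 cm) grown in peat-based mix.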

[9] = system: ragweed (common ragweed, Ambrosia elatior); experiment: as above; conditions: Ambrosia artemisiifolia; for pest or weed control at 62 g/ha: 62 g ai/ha; for pest or weed control at 125 g/ha: 125 g ai/ha; for pest or weed control at 250 g/ha: 250 g ai/ha; for pest or weed control at 500 g/ha: 500 g ai/ha
Summary of the method: as §2

[10] = system: chickweed (common chickweed, Stellaria media); experiment: Test C postemergence greenhouse test, plant response rating 0-100; conditions: Stellaria media, post-emergence
Excerpt: (§3) At the same time, plants selected from these crop and weed species and also winter barley (Hordeum vulgare), bermudagrass (Cynodon dactylon), downy bromegrass (Bromus tectorum), canarygrass (Phalaris minor), cocklebur (common cocklebur, Xanthium strumarium), woolly cupgrass (Eriochloa villosa), deadnettle (henbit deadnettle, Lamium amplexicaule), green foxtail (Setaria viridis), goosegrass (Eleusine indica), surinam grass (Brachiaria decumbens), windgrass (Apera spica-venti), chickweed (common chickweed, Stellaria media), kochia (Kochia scoparia), and wild oat (Avena fatua), were planted in pots containing Redi-Earth® planting medium (Scotts Company, 14111 Scottslawn Road, Marysville, Ohio 43041) comprising spaghnum peat moss, vermiculite, wetting agent and starter nutrients and treated with postemergence applications of test chemicals formulated in the same manner. Plants ranged in height from 2 to 18 cm (1- to 4-leaf stage) for postemergence treatments. Treated plants and controls were maintained in a greenhouse for 13 to 15 days, after which time all species were compared to controls and visually evaluated. Plant response ratings, summarized in Table C, are based on a scale of 0 to 100 where 0 is no effect and 100 is complete control. A dash (-) response means no test result.

kochia (Kochia scoparia) = experiment: as above; conditions: Bassia scoparia, post-emergence
Excerpt: as §3

wild oat (Avena fatua) = experiment: as above; conditions: Avena fatua, post-emergence
Excerpt: as §3

[11] = post-emergence, Postemergence, read-out: Plant response rating (0 to 100), Blackgrass
[12] = post-emergence, Postemergence, scale 0 to 100
[13] = pre-emergence, Preemergence, read-out: Plant response rating, Blackgrass
[14] = post-emergence, Postemergence, read-out: Plant response rating (0 to 100), Ragweed
[15] = pre-emergence, Preemergence, read-out: Plant response rating, Ragweed

C#CCn1cc(C(=O)c2ccccc2)c(-c2cc(Cl)cc(Cl)c2)n1 [Compound 39, [3-(3,5-dichlorophenyl)-1-(2-propyn-1-yl)-1H-pyrazol-4-yl]phenylmethanone] gave a pest or weed control at 1000 g/ha ([1]; post-emergence, Postemergence) of 0%, a pest or weed control at 1000 g/ha ([1]; pre-emergence, Preemergence) of 0% and a plant injury at 1000 g/ha (corn (Zea mays); post-emergence, Postemergence) of 0%. It also gave a plant injury at 1000 g/ha (corn (Zea mays); pre-emergence, Preemergence) of 0%, a pest or weed control at 1000 g/ha ([2]; post-emergence, Postemergence) of 0% and a pest or weed control at 1000 g/ha ([2]; pre-emergence, Preemergence) of 0%. For the same compound, the pest or weed control at 1000 g/ha ([3]; post-emergence, Postemergence) was 0%, the pest or weed control at 1000 g/ha ([3]; pre-emergence, Preemergence) was 0% and the pest or weed control at 1000 g/ha [4] was 0%. The pest or weed control at 1000 g/ha ([5]; post-emergence, Postemergence) was 100%, the pest or weed control at 1000 g/ha ([5]; pre-emergence, Preemergence) was 100% and the pest or weed control at 1000 g/ha ([6]; post-emergence, Postemergence) was 100%. The pest or weed control at 1000 g/ha ([6]; pre-emergence, Preemergence) was 100%, the plant injury at 1000 g/ha ([7]; post-emergence, Postemergence) was 0% and the plant injury at 1000 g/ha ([7]; pre-emergence, Preemergence) was 0%. The pest or weed control at 62 g/ha [8, 11] was 0%, the pest or weed control at 125 g/ha [8, 11] was 0% and the pest or weed control at 250 g/ha [8, 12] was 0%. It also gave a pest or weed control at 500 g/ha [8, 12] of 0%, a pest or weed control at 62 g/ha [8, 13] of 0% and a pest or weed control at 125 g/ha [8, 13] of 0%. For the same compound, the pest or weed control at 250 g/ha ([8]; pre-emergence, Preemergence) was 0%, the pest or weed control at 500 g/ha ([8]; pre-emergence, Preemergence) was 0% and the pest or weed control at 62 g/ha [9, 14] was 10%. For the same compound, the pest or weed control at 125 g/ha [9, 14] was 10%, the pest or weed control at 250 g/ha [9, 12] was 35% and the pest or weed control at 500 g/ha [9, 12] was 35%. For the same compound, the pest or weed control at 62 g/ha [9, 15] was 0%, the pest or weed control at 125 g/ha [9, 15] was 20% and the pest or weed control at 250 g/ha ([9]; pre-emergence, Preemergence) was 45%. For the same compound, the pest or weed control at 500 g/ha ([9]; pre-emergence, Preemergence) was 45%, the pest or weed control at 62 g/ha ([10]; 62 g ai/ha) was 98% and the pest or weed control at 125 g/ha ([10]; 125 g ai/ha) was 98%. The pest or weed control at 250 g/ha ([10]; 250 g ai/ha, scale 0 to 100) was 100%, the pest or weed control at 500 g/ha ([10]; 500 g ai/ha, scale 0 to 100) was 100% and the pest or weed control at 62 g/ha (kochia (Kochia scoparia); 62 g ai/ha) was 15%. It also gave a pest or weed control at 125 g/ha (kochia (Kochia scoparia); 125 g ai/ha) of 40%, a pest or weed control at 250 g/ha (kochia (Kochia scoparia); 250 g ai/ha, scale 0 to 100) of 55% and a pest or weed control at 500 g/ha (kochia (Kochia scoparia); 500 g ai/ha, scale 0 to 100) of 80%. For the same compound, the pest or weed control at 62 g/ha (wild oat (Avena fatua); 62 g ai/ha) was 0%, the pest or weed control at 125 g/ha (wild oat (Avena fatua); 125 g ai/ha) was 0% and the pest or weed control at 250 g/ha (wild oat (Avena fatua); 250 g ai/ha, scale 0 to 100) was 0%. For the same compound, the pest or weed control at 500 g/ha (wild oat (Avena fatua); 500 g ai/ha, scale 0 to 100) was 5%.
